The text below walks through data of PubChem BioAssay (NCI).

Test systems include TK-10 renal; SNB-75 CNS; RXF 393 renal; CCRF-CEM leukemia; NCI-H522 lung; SK-MEL-2 melanoma; MDA-MB-435; OVCAR-5 ovarian; DU-145 prostate; MCF7 breast.
Test in all cases: growth of human tumour cells (NCI), 48 h

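Where inhibition never reached the appropriate level, the endpoint shown equals the highest concentration tested. Otherwise, values were interpolated linearly from a five-concentration, 48-hour dose response in 96-well plates. The concentration for 50% growth inhibition is given as GI50. TGI: concentration producing complete growth inhibition.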

Consider `Cn1c(O)c(C=Nc2ccccc2[N+](=O)[O-])c(=O)n(C)c1=O`, for which the TGI with TK-10 renal, with SNB-75 CNS, in the experiment with RXF 393 renal, in the experiment with CCRF-CEM leukemia, in the experiment on NCI-H522 lung and in the experiment with SK-MEL-2 melanoma was over 100 µM in each case. Also, the TGI in the experiment with MDA-MB-435 and in the experiment on OVCAR-5 ovarian was over 100 µM each time.

In the case of `CCCCCCC(=O)O[C@H]1CC[C@H]2[C@@H]3CCC4C/C(=N/NC(=O)c5cccc6c(=O)c7ccccc7[nH]c56)C=C(C)[C@]4(C)[C@H]3CC[C@]12C` (some centres undefined), the TGI in the experiment with TK-10 renal, with SNB-75 CNS, in the experiment with CCRF-CEM leukemia, with SK-MEL-2 melanoma, in the experiment with DU-145 prostate and in the experiment on MDA-MB-435 was over 25 µM each time. Further, the TGI in the experiment with OVCAR-5 ovarian and in the experiment with MCF7 breast was over 25 µM each time.

For `COc1cc2c(cc1OCCCCN1C(=O)c3cccc4cccc(c34)C1=O)N=C[C@@H]1CCCN1C2=O`, the TGI was 6.91 µM in the experiment with TK-10 renal; 3.63 µM in the experiment with RXF 393 renal; 5.08 µM in the experiment with CCRF-CEM leukemia; 4.59 µM in the experiment with NCI-H522 lung; 17.9 µM in the experiment with SK-MEL-2 melanoma; 14.3 µM with DU-145 prostate. Besides, the figures for the TGI in the experiment with MDA-MB-435, in the experiment with OVCAR-5 ovarian and in the experiment with MCF7 breast were over 35.6 µM, over 100 µM and 22.4 µM, respectively.

As to `COc1cccc([C@H]2C/C(=N\NC(=O)C(=O)N[C@@H](C)c3ccccc3)c3ccccc3N2)c1`, the TGI was over 100 µM in the experiment on TK-10 renal; over 100 µM with RXF 393 renal; 3.09 µM in the experiment with CCRF-CEM leukemia; over 100 µM in the experiment with SK-MEL-2 melanoma; 15.6 µM with DU-145 prostate; over 100 µM in the experiment with OVCAR-5 ovarian. For the same compound, the TGI in the experiment with MCF7 breast was over 100 µM. The values for the GI50 with RXF 393 renal and with MCF7 breast were 0.0303 µM and 0.0306 µM, respectively.

For the compound `Cc1ccc(N(C(=O)Nc2ccccc2)C2=NCC(C)S2)cc1C` (centres undefined), the TGI was 55.2 µM with TK-10 renal; 56.4 µM in the experiment with SNB-75 CNS; 50.6 µM in the experiment with CCRF-CEM leukemia; 32.2 µM with SK-MEL-2 melanoma; over 100 µM with DU-145 prostate; 73.5 µM with OVCAR-5 ovarian. This compound showed a TGI in the experiment with MCF7 breast of 71.9 µM.

For `Cc1cc2c(cc1Cl)S(=O)(=O)OC(c1ccc([N+](=O)[O-])cc1)=N2`, the TGI in the experiment on TK-10 renal, in the experiment on SNB-75 CNS, with RXF 393 renal, in the experiment on CCRF-CEM leukemia, in the experiment on NCI-H522 lung and in the experiment on DU-145 prostate was over 100 µM throughout. Besides, the TGI in the experiment on MDA-MB-435 and in the experiment with MCF7 breast was over 100 µM each time.

Turning to `CCOP(=O)(OCC)C(Nc1ccc(Br)cc1)c1cccc([N+](=O)[O-])c1` (centres undefined), the TGI with TK-10 renal was 88.1 µM; in the experiment on SNB-75 CNS, over 100 µM; in the experiment with RXF 393 renal, 31.5 µM; in the experiment with CCRF-CEM leukemia, 49.1 µM; with NCI-H522 lung, 28 µM; in the experiment on SK-MEL-2 melanoma, 31.4 µM. For the same compound, the TGI is over 100 µM in the experiment with DU-145 prostate, 36.7 µM in the experiment with MDA-MB-435 and 67.6 µM in the experiment with OVCAR-5 ovarian.

As for `O=C(c1ccc(Cl)cc1)N(C(=O)N1CCC(c2ccccc2)CC1)c1ccccc1`, the TGI was over 100 µM in the experiment on TK-10 renal; 9.27 µM with SNB-75 CNS; 62.5 µM in the experiment with RXF 393 renal; 77.4 µM with CCRF-CEM leukemia; over 100 µM with SK-MEL-2 melanoma; over 100 µM in the experiment on DU-145 prostate. Besides, the TGI is over 100 µM in the experiment with MDA-MB-435, 57.3 µM in the experiment on OVCAR-5 ovarian and over 100 µM with MCF7 breast.

In the case of `O=C1NC(=S)N/C1=C\c1ccc(Br)s1`, the TGI in the experiment with TK-10 renal, with RXF 393 renal, with CCRF-CEM leukemia, in the experiment with NCI-H522 lung, in the experiment with SK-MEL-2 melanoma and with DU-145 prostate was over 100 µM each time. Moreover, the TGI with MDA-MB-435, with OVCAR-5 ovarian and in the experiment with MCF7 breast was over 100 µM each time.

As for `N#Cc1c(-c2ccc([N+](=O)[O-])cc2)c(C#N)c(=O)n(NS(=O)(=O)c2ccccc2)c1-c1ccccc1`, the TGI in the experiment on TK-10 renal, with SNB-75 CNS, with RXF 393 renal, in the experiment on CCRF-CEM leukemia, in the experiment on NCI-H522 lung and in the experiment on SK-MEL-2 melanoma was over 100 µM each time. In addition, the TGI in the experiment on MDA-MB-435, in the experiment with OVCAR-5 ovarian and in the experiment on MCF7 breast was over 100 µM in each case.

`CC(=O)O[C@H]1C(=O)[C@@]2(C)[C@H]([C@H](OC(=O)c3ccccc3)[C@]3(O)C[C@H](OC(=O)[C@H](O)[C@@H](NC(=O)c4cccc(N=[N+]=[N-])c4)c4ccccc4)C(C)=C1C3(C)C)[C@]1(OC(C)=O)CO[C@@H]1C[C@@H]2O`: the TGI is over 20.1 µM with TK-10 renal; 0.785 µM in the experiment with SNB-75 CNS; 0.897 µM in the experiment with RXF 393 renal; 0.0681 µM in the experiment with CCRF-CEM leukemia; 0.00412 µM in the experiment on MDA-MB-435; 1.06 µM with OVCAR-5 ovarian. The compound also displayed a TGI with MCF7 breast of over 25 µM.

As to `O=C1CSC(c2ccc([N+](=O)[O-])cc2)N1c1ccc(-n2c(-c3ccccc3)nc3ccccc3c2=O)cc1` (centres undefined), the TGI in the experiment on TK-10 renal, in the experiment with CCRF-CEM leukemia, with NCI-H522 lung, in the experiment on SK-MEL-2 melanoma, in the experiment with DU-145 prostate and with MDA-MB-435 was over 100 µM each time. This compound showed a TGI with MCF7 breast of over 100 µM.

For `CC(C)OCC1CC(CC(=O)Nc2nncs2)C(=O)O1` (centres undefined), the TGI in the experiment with TK-10 renal, in the experiment on SNB-75 CNS, in the experiment with CCRF-CEM leukemia, in the experiment on SK-MEL-2 melanoma, in the experiment with DU-145 prostate and with MDA-MB-435 was over 100 µM in each case. Moreover, the TGI in the experiment on OVCAR-5 ovarian and in the experiment on MCF7 breast was over 100 µM in each case.

`CC(C)C1=CC23CCC4C(C)(C(=O)O)CCCC4(C)C2CC1C1C(=O)N(c2ccccc2N2C(=O)C4C5CC6C7(C)CCCC(C)(C(=O)O)C7CCC6(C=C5C(C)C)C4C2=O)C(=O)C13` (centres undefined): the TGI with TK-10 renal stood at 27.3 µM; in the experiment with RXF 393 renal it was 32.1 µM; with CCRF-CEM leukemia, 22.1 µM; in the experiment on NCI-H522 lung, 23 µM; in the experiment with SK-MEL-2 melanoma, 26.1 µM; with DU-145 prostate, 21.8 µM. Also, the TGI in the experiment with MDA-MB-435 was 13.1 µM; in the experiment on OVCAR-5 ovarian, 25 µM.

Take `Cc1nn(C(=O)Cc2ccccc2)c2c1C(c1ccc(O)cc1O)SC(N)=N2` (centres undefined): the TGI in the experiment with TK-10 renal, with SNB-75 CNS, with CCRF-CEM leukemia, in the experiment on NCI-H522 lung, in the experiment on DU-145 prostate and with MDA-MB-435 was over 100 µM throughout. This compound also gave a TGI in the experiment with MCF7 breast of over 100 µM.

Turning to `Cc1ccc(NC2=CC(=O)C(NO)c3ccccc32)cc1` (centres undefined), the TGI in the experiment on TK-10 renal was determined as 62.7 µM; in the experiment with SNB-75 CNS it was 22.2 µM; in the experiment on RXF 393 renal, 12.7 µM; in the experiment on SK-MEL-2 melanoma, 8.99 µM; in the experiment on DU-145 prostate, 7.41 µM; in the experiment with OVCAR-5 ovarian it was 25 µM. This compound also gave a TGI with MCF7 breast of 10.8 µM.

For `CC[C@@H]1CC[C@@H]2[C@H](CC[C@]3(C)[C@@H](OS(=O)(=O)c4ccc(C)cc4)CC[C@@H]23)[C@H]1COS(=O)(=O)c1ccc(C)cc1`, the TGI with TK-10 renal, in the experiment on RXF 393 renal, with CCRF-CEM leukemia, with DU-145 prostate, in the experiment on MDA-MB-435 and in the experiment with MCF7 breast was over 100 µM each time.

Consider `COc1cc(CO)c(CC(=O)NCCCc2ccccc2)cc1OC`, for which the TGI in the experiment on TK-10 renal, in the experiment on SNB-75 CNS, with CCRF-CEM leukemia, in the experiment on SK-MEL-2 melanoma, in the experiment on DU-145 prostate and with MDA-MB-435 was over 100 µM throughout. This compound also gave a TGI with OVCAR-5 ovarian of over 100 µM.

On to `CCCN(CCCc1ccccc1)CCc1ccc2[nH]c(=S)[nH]c2c1`, for which the TGI in the experiment on TK-10 renal is over 100 µM; in the experiment on SNB-75 CNS it was 68.3 µM; with RXF 393 renal, 76.1 µM; in the experiment with SK-MEL-2 melanoma, 38.4 µM; with DU-145 prostate it was over 100 µM; with MDA-MB-435 it was 41.8 µM. Also, the TGI in the experiment with OVCAR-5 ovarian and with MCF7 breast was over 100 µM each time.

For `COc1ccc(CC(=O)N2CCC3(C)CC(=O)CC=C23)cc1OC` (centres undefined), the TGI with RXF 393 renal, with NCI-H522 lung, in the experiment with SK-MEL-2 melanoma, in the experiment on DU-145 prostate, in the experiment with MDA-MB-435 and with OVCAR-5 ovarian was over 100 µM each time. This compound also registered a TGI in the experiment with MCF7 breast of over 100 µM.

For the compound `CN1CCN(c2ncc3c(n2)sc2c(=O)n(-c4ccccc4)cnc23)CC1`, the TGI in the experiment with TK-10 renal, in the experiment with SNB-75 CNS, in the experiment with RXF 393 renal, with CCRF-CEM leukemia, with NCI-H522 lung and with SK-MEL-2 melanoma was over 100 µM throughout. Besides, the TGI in the experiment with DU-145 prostate, in the experiment on MDA-MB-435 and in the experiment with OVCAR-5 ovarian was over 100 µM in each case.

Consider `CN(C)CCCNc1ccc([N+](=O)[O-])c2nc3ccccc3c(N)c12`, for which the TGI in the experiment with TK-10 renal was over 10 µM; in the experiment on RXF 393 renal, 2.29 µM; with CCRF-CEM leukemia it was 2.99 µM; in the experiment on SK-MEL-2 melanoma, 2.69 µM; with DU-145 prostate, 1.75 µM; with MDA-MB-435 it was 2.26 µM. The TGI in the experiment with OVCAR-5 ovarian and in the experiment with MCF7 breast was over 10 µM in each case.
